Measurements from publication PMC9873280, “In silico identification and biological evaluation of a selective MAP4K4 inhibitor against pancreatic cancer” (Journal of Enzyme Inhibition and Medicinal Chemistry, 2023).

Legend:
Format in all cases: biochemical
MAP4K4 [1] = target: T1, MAP4K4 (Homo sapiens, UniProt O95819); experiment: Z'LYTE kinase activity assay
T1 construct: recombinant kinase of the ThermoFisher SelectScreen service
Description: Z'LYTE kinase activity assay on MAP4K4

MAP4K4 [2] = target: T1, MAP4K4; experiment: Z'LYTE kinase activity assay; conditions: 1 h incubation with ATP
MAP4K7 = target: T2, MAP4K7 (Homo sapiens, UniProt Q9UKE5); experiment: kinase profiling panel; conditions: read-out: % inhibition at 150 nM
T2 construct: gene TNIK; recombinant kinase of a commercial 81-kinase panel
T2 sequence (Q9UKE5 whole entry): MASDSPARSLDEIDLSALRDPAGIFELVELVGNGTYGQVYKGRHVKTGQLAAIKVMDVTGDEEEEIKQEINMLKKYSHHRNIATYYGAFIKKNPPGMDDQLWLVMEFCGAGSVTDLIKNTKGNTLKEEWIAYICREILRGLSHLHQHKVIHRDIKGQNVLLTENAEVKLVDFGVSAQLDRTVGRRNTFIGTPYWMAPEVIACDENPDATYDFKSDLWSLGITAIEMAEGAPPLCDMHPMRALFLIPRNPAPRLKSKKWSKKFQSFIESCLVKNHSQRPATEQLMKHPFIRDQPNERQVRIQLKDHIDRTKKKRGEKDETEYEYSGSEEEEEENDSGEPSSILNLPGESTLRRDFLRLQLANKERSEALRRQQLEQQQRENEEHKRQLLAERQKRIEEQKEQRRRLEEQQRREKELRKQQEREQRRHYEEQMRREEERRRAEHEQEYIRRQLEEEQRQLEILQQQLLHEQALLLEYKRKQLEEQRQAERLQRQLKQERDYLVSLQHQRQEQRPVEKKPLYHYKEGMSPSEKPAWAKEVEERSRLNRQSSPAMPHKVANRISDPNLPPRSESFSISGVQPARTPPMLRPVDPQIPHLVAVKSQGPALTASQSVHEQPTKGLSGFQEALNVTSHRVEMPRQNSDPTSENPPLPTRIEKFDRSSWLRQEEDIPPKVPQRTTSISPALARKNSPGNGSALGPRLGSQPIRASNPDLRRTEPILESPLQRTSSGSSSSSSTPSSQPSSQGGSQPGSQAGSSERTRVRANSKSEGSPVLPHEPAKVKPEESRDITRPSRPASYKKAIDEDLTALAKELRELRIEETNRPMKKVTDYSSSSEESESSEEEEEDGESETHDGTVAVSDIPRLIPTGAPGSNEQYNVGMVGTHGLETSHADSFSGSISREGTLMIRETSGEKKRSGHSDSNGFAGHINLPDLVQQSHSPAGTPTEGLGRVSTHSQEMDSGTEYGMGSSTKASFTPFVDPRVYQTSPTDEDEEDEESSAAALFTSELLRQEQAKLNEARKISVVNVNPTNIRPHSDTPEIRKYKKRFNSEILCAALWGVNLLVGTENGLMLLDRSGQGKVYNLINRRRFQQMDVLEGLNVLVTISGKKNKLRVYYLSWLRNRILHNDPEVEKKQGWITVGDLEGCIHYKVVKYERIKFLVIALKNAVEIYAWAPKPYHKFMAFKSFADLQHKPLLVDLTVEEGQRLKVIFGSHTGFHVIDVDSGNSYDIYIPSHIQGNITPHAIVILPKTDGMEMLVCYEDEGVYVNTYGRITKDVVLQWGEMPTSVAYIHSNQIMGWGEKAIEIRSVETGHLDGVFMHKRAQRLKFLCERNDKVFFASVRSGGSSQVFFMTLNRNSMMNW

MAP4K5 = target: T3, MAP4K5 (Homo sapiens, UniProt Q9Y4K4); experiment: kinase profiling panel; conditions: read-out: % inhibition at 150 nM
T3 construct: recombinant kinase of a commercial 81-kinase panel
T3 sequence (Q9Y4K4 whole entry): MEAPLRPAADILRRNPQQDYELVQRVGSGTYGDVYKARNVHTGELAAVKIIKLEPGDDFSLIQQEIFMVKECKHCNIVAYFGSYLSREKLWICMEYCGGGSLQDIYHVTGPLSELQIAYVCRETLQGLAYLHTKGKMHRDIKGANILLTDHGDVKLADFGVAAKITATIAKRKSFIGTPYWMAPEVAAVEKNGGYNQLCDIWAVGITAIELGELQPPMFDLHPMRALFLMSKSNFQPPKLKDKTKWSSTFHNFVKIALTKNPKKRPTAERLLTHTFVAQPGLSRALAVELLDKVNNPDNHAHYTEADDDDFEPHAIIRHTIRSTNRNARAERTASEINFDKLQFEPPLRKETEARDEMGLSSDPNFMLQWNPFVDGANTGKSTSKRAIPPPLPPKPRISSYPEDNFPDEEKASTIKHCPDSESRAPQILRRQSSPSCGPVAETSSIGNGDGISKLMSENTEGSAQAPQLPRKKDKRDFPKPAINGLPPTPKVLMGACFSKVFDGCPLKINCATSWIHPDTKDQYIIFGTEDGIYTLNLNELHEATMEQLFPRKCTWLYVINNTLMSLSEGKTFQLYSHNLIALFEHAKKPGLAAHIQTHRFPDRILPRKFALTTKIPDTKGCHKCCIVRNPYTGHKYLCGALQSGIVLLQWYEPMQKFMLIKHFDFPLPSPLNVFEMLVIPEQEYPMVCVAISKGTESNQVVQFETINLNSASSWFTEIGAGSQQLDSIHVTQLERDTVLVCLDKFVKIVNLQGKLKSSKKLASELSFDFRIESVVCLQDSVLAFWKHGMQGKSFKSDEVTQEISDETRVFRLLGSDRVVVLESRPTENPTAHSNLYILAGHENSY

MAP4K6 = target: T4, MAP4K6 (Homo sapiens, UniProt Q8N4C8); experiment: kinase profiling panel; conditions: read-out: % inhibition at 150 nM
T4 construct: gene MINK1; recombinant kinase of a commercial 81-kinase panel
T4 sequence (Q8N4C8 whole entry): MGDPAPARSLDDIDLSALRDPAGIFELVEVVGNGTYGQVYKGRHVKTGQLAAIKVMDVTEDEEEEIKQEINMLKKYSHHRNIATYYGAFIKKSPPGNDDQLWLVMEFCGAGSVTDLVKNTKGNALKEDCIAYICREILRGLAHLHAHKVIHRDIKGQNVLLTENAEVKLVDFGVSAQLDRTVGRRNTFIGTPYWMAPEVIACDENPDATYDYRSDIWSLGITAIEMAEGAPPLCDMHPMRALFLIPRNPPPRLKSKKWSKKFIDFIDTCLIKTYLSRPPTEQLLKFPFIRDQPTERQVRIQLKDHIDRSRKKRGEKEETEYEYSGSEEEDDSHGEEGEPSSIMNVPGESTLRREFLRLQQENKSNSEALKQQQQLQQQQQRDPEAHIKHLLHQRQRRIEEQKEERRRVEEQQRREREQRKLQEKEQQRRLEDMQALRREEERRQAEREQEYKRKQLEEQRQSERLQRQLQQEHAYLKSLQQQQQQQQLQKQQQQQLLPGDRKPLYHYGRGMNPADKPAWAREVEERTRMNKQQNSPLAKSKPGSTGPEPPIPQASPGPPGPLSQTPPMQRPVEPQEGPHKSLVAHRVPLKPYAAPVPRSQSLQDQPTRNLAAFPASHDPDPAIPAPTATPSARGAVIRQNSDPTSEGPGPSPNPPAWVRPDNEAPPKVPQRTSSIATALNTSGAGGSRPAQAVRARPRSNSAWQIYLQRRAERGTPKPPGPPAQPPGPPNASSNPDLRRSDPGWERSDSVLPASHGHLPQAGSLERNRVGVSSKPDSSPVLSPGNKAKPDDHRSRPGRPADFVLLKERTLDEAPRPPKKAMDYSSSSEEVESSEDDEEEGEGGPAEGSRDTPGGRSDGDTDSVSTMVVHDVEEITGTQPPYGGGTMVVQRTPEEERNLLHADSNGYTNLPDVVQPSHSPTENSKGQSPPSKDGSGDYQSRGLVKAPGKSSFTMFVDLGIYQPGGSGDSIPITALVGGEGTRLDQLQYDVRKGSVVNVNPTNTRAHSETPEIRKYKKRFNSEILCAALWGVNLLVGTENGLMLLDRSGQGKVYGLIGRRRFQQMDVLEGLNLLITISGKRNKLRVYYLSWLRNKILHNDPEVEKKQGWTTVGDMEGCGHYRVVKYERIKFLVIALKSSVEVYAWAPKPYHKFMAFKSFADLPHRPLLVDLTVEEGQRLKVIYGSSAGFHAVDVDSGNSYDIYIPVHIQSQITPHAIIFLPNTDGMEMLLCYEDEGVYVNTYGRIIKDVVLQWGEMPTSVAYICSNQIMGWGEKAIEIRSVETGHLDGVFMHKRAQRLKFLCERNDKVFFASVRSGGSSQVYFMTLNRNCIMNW

T1 sequence (O95819 2-1239): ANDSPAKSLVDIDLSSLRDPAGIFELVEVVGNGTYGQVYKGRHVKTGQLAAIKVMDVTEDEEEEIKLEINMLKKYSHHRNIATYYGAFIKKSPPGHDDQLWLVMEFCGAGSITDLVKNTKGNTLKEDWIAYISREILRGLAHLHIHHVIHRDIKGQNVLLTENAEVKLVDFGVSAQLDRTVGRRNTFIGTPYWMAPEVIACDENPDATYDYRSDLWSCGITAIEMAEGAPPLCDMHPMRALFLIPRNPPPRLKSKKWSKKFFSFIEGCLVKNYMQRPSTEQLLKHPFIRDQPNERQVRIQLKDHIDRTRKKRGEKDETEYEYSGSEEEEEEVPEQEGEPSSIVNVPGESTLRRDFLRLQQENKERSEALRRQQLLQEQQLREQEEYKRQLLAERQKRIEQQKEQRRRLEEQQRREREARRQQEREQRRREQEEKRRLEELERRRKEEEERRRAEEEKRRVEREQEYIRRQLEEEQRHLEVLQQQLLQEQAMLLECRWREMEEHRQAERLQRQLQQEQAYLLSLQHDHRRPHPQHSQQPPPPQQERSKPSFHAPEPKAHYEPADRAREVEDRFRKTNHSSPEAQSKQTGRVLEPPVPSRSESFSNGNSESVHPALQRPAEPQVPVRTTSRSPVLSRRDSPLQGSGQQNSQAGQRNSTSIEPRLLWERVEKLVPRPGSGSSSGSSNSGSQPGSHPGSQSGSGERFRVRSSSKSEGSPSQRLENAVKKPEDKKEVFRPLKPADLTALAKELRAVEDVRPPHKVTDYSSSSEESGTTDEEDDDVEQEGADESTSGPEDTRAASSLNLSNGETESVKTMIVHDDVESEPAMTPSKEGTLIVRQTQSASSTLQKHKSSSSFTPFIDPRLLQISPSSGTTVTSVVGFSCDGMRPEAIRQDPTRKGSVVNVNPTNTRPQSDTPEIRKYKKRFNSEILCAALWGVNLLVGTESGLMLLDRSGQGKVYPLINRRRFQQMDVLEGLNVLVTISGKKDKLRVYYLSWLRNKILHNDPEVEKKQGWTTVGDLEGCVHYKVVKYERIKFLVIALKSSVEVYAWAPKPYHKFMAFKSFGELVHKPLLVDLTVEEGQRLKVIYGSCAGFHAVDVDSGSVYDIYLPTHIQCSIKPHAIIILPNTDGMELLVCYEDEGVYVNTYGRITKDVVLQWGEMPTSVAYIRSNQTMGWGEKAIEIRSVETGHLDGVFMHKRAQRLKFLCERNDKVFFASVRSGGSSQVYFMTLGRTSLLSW

Row | SMILES | inhibition at 1 µM (MAP4K4 [1]) [%] | IC50 (MAP4K4 [2]) [nM] | also measured
1 | COc1ccccc1CNC(=O)c1ccc2c(c1)NC(=O)C(=Cc1ccc(Cl)cc1)O2 [F389-0092] | 68 | – | –
2 | COc1cccc(CNC(=O)c2ccc3c(c2)NC(=O)C(=Cc2ccc(Cl)cc2)O3)c1 [F389-0093] | 70 | – | –
3 | O=C1Nc2cc(C(=O)NCc3ccccc3F)ccc2OC1=Cc1ccc(Cl)cc1 [F389-0161] | 72 | – | –
4 | CCOc1cc(CNC(=O)c2ccc3c(c2)NC(=O)C(=Cc2ccc(Cl)cc2)O3)ccc1OC [F389-0164] | 67 | – | –
5 | CN1CCN(CCNC(=O)c2ccc3c(c2)NC(=O)C(=Cc2ccc(Cl)cc2)O3)CC1 [F389-0167] | – | 276 | –
6 | CCOc1ccc(CNC(=O)c2ccc3c(c2)NC(=O)C(=Cc2ccc(Cl)cc2)O3)cc1OC [F389-0169] | – | 337 | –
7 | O=C1Nc2cc(C(=O)NCc3cccc(F)c3)ccc2OC1=Cc1ccc(Cl)cc1 [F389-0183] | – | 334 | –
8 | O=C1Nc2cc(C(=O)NCc3ccccc3Cl)ccc2OC1=Cc1cccc(Cl)c1 [F389-0592] | 57 | – | –
9 | COc1ccc(CCNC(=O)c2ccc3c(c2)NC(=O)C(=Cc2cccc(Cl)c2)O3)cc1OC [F389-0604] | – | 189 | –
10 | COc1cccc(CNC(=O)c2ccc3c(c2)NC(=O)C(=Cc2cccc(Cl)c2)O3)c1 [F389-0669] | 59 | – | –
11 | CCOc1ccccc1CNC(=O)c1ccc2c(c1)NC(=O)C(=Cc1cccc(Cl)c1)O2 [F389-0738] | 57 | – | –
12 | CCOc1ccc(CNC(=O)c2ccc3c(c2)NC(=O)C(=Cc2cccc(Cl)c2)O3)cc1OC [F389-0745] | – | 384 | –
13 | CSc1ccc(CNC(=O)c2ccc3c(c2)NC(=O)C(=Cc2cccc(Cl)c2)O3)cc1 [F389-0746] | – | 121 | inhibition at 0.15 µM (MAP4K7): 27%; inhibition at 0.15 µM (MAP4K5): 17%; inhibition at 0.15 µM (MAP4K6): 44%
14 | CCOc1ccc(CNC(=O)c2ccc3c(c2)NC(=O)C(=Cc2cccc(Cl)c2)O3)cc1 [F389-0750] | 67 | – | –
15 | O=C1Nc2cc(C(=O)NCc3cccc(F)c3)ccc2OC1=Cc1cccc(Cl)c1 [F389-0759] | 61 | – | –
